Measured values as given in patent publication US12568969B2, “Pyridine compounds for controlling invertebrate pests” (FMC Corporation, priority 2020, dated 2026).

Tests used:
[1] = test system: diamondback moth (Plutella xylostella (L.)); assay: Test A: control of diamondback moth on mustard plant, spray; format: in vivo; conditions: sprayed at 250 ppm; assessed after 6 days
Description: (§1) Test compounds were formulated using a solution containing 10% acetone, […] and 300 ppm Activator 909 non-ionic surfactant (Loveland Products, Loveland, Colorado, USA). The formulated compounds were applied in 1 mL of liquid through an atomizer nozzle positioned 1.27 cm (0.5 inches) above the top of each test unit. Test compounds were sprayed at the rates indicated, and each test was replicated three times.
For evaluating control of diamondback moth (Plutella xylostella (L.)) the test unit consisted of a small open container with a 12-14-day-old mustard plant inside. This was pre-infested with ˜50 neonate larvae that were dispensed into the test unit via corn cob grits using an inoculator. The larvae moved onto the test plant after being dispensed into the test unit.
Test compounds were formulated and sprayed at 250 ppm. After spraying of the formulated test compound, each test unit was allowed to dry for 1 hour and then a black, screened cap was placed on top. The test units were held for 6 days in a growth chamber at 25° C. and 70% relative humidity. Plant feeding damage was then visually assessed based on foliage consumed, and larvae were assessed for mortality.

[2] = test system: Western Flower Thrips (Frankliniellla occidentalis (Pergande)); assay: Test G: control of Western Flower Thrips on Soleil bean plant, spray; format: in vivo; conditions: sprayed at 250 ppm; 6 days
Description: as §1
For evaluating control of the Western Flower Thrips (Frankliniellla occidentalis (Pergande)) through contact and/or systemic means, the test unit consisted of a small open container with a 5-7-day-old Soleil bean plant inside.
Test compounds were formulated and sprayed at 250 ppm. After spraying, the test units were allowed to dry for 1 hour, and then about 60 thrips (adults and nymphs) were added to each unit. A black, screened cap was placed on top, and the test units were held for 6 days at 25° C. and 45-55% relative humidity. Each test unit was then visually assessed for plant damage and insect mortality.

[3] = test system: green peach aphid (Myzus persicae (Sulzer)); assay: Test D: control of green peach aphid on radish plant, spray; format: in vivo; conditions: for mortality at 250 ppm / mortality at 50 ppm: Myzus persicae, 144 h, 6 days; for Control Efficacy GPA: green peach aphid
Summary of the method: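 Radish plants (12-15 days old) pre-infested with 30-40 aphids, sprayed with compound in 10% acetone/water with 300 ppm non-ionic surfactant at 250 and/or 50 ppm, three replicates. Held 6 days at 19-21 °C, 50-70% relative humidity, then mortality scored visually.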

[4] = test system: cotton melon aphid (Aphis gossypii (Glover)); assay: whole plant or invertebrate; format: in vivo; conditions: for mortality at 50 ppm / mortality at 250 ppm: Aphis gossypii, 144 h, 6 days; for Control Efficacy CMA: cotton melon aphid
Summary of the method: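 Compounds were formulated in a solution of 10% acetone, […] and 300 ppm Activator 909 non-ionic surfactant and sprayed as 1 mL through an atomizer nozzle 1.27 cm (0.5 inches) above each test unit, with three replicates. Units were pre-infested with 30-40 aphids on leaf pieces via the cut-leaf method, soil covered with sand, then kept 6 days at 19° C. and 70% relative humidity before visual mortality scoring.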

[5] = test system: corn planthopper (Peregrinus maidis (Ashmead)); assay: whole plant or invertebrate; format: in vivo; conditions: for mortality at 50 ppm / mortality at 250 ppm: Peregrinus maidis, 144 h, 6 days; for Control Efficacy CPH: corn planthopper
Summary of the method: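 Corn plants 3-4 days old were sprayed at 250, 50 and/or 10 ppm in 10% acetone with 300 ppm non-ionic surfactant, three replicates, contact and/or systemic exposure. After 1 h drying, ~15-20 nymphs (18-to-21-day-old) were added; mortality assessed visually after 6 days at 22-24° C, 50-70% RH.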

[6] = test system: sweetpotato whitefly (Bemisia tabaci (Gennadius)); assay: Test F: control of sweetpotato whitefly on cotton plant, spray; format: in vivo; conditions: 312 h, 13 days; for mortality at 50 ppm: sprayed at 50 ppm; for mortality at 250 ppm: sprayed at 250 ppm
Description: as §1
For evaluating control of the sweetpotato whitefly (Bemisia tabaci (Gennadius)) through contact and/or systemic means, the test unit consisted of a small open container with a 12-14-day-old cotton plant inside. Prior to the spray application, both cotyledons were removed from the plant, leaving one true leaf for the assay. Adult whiteflies were allowed to lay eggs on the plant and then were removed from the test unit. Cotton plants infested with at least 15 eggs were submitted to the test for spraying.
Test compounds were formulated and sprayed at 250 and/or 50 ppm. After spraying, the test units were allowed to dry for 1 hour. The cylinders were then removed, and the units were taken to a growth chamber and held for 13 days at 28° C. and 50-70% relative humidity. Each test unit was then visually assessed for insect mortality.

[7] = test system: potato leafhopper (Empoasca fabae (Harris)); assay: Test C: control of potato leafhopper on Soleil bean plant, spray; format: in vivo; conditions: for mortality at 250 ppm: Empoasca fabae, 144 h, 6 days; for Control Efficacy PLH: potato leafhopper
Description: as §1
For evaluating control of potato leafhopper (Empoasca fabae (Harris)) through contact and/or systemic means, the test unit consisted of a small open container with a 5-6-day-old Soleil bean plant (primary leaves emerged) inside. White sand was added to the top of the soil, and one of the primary leaves was excised prior to application of the test compound.
[…] After spraying of the formulated test compound, the test units were allowed to dry for 1 hour before they were post-infested with 5 potato leafhoppers (18-to-21-day-old adults). A black, screened cap was placed on the top of the test unit, and the test units were held for 6 days in a growth chamber at 20° C. and 70% relative humidity. Each test unit was then visually assessed for insect mortality.

[8] = Vapor pressure estimated by GC/MS retention time correlation; format: physicochemical
Description: The procedures to obtain the vapor pressure values for both compounds are as follows: A solution of the test compound was prepared in acetonitrile at a concentration of 50 μg/mL and was then analyzed by gas chromatography/mass spectrometry (GC/MS). A linear correlation of retention times vs. known vapor pressure values of standard compounds is used to obtain an estimate of the vapor pressure of the test compounds by using interpolation. Detection and retention time of the subject compounds are confirmed by interpretation of the mass spectrum.

## FC(c1ccc(OC(F)(F)F)cc1)c1c(Br)cncc1-n1nc(Br)c(Br)n1 (racemic) [Compound 29]
[1]
  control efficacy (40% or less feeding damage and/or 100% mortality): very good to excellent levels of control efficacy
[2]
  control efficacy (30% or less plant damage and/or 100% mortality): very good to excellent levels of control efficacy

## Fc1cncc(-n2cccn2)c1C(F)c1ccc(SC(F)(F)F)cc1 (stereo not drawn) [Compound 1]
[3]; sprayed at 250 ppm
  mortality at 250 ppm: ≥ 80%
[4]; sprayed at 50 ppm
  mortality at 50 ppm: ≥ 80%
[4]; sprayed at 250 ppm
  mortality at 250 ppm: ≥ 80%
[5]; sprayed at 50 ppm
  mortality at 50 ppm: ≥ 80%
[5]; sprayed at 250 ppm
  mortality at 250 ppm: ≥ 80%
[1]
  control efficacy (40% or less feeding damage and/or 100% mortality): very good to excellent levels of control efficacy
[6]
  mortality at 50 ppm: ≥ 70%
  mortality at 250 ppm: ≥ 70%
[2]
  control efficacy (30% or less plant damage and/or 100% mortality): very good to excellent levels of control efficacy

## Fc1cncc(-n2nccn2)c1C(F)c1ccc(OC(F)(F)F)cc1 (stereo not drawn) [Compound 8]
[3]; GPA, down to 2 ppm
  control efficacy compared with compound A: significantly higher control efficacy than compound A
[3]; sprayed at 50 ppm
  mortality at 50 ppm: ≥ 80%
  Control Efficacy GPA: 100%
[3]; sprayed at 250 ppm
  mortality at 250 ppm: ≥ 80%
  Control Efficacy GPA: 100%
[3]; sprayed at 2 ppm
  Control Efficacy GPA: 100%
[3]; sprayed at 10 ppm
  Control Efficacy GPA: 94%
[7]; sprayed at 250 ppm
  mortality at 250 ppm: ≥ 80%
  Control Efficacy PLH: 93
[7]; PLH, at 250 ppm
  control efficacy compared with compound A: significantly higher control efficacy than compound A
[7]; sprayed at 50 ppm
  Control Efficacy PLH: 0
[8]
  Vapor Pressure: 6.04E−06
[8]; compared with compound A
  vapor pressure relative to compound A: ~1000 times lower
[4]; sprayed at 50 ppm
  mortality at 50 ppm: ≥ 80%
  Control Efficacy CMA: 96%
[4]; sprayed at 250 ppm
  mortality at 250 ppm: ≥ 80%
  Control Efficacy CMA: 80%
[4]; CMA, down to 2 ppm
  control efficacy compared with compound A: significantly higher control efficacy than compound A
[4]; sprayed at 2 ppm
  Control Efficacy CMA: 79%
[4]; sprayed at 10 ppm
  Control Efficacy CMA: 88%
[5]; CPH, down to 2 ppm
  control efficacy compared with compound A: significantly higher control efficacy than compound A
[5]; sprayed at 50 ppm
  mortality at 50 ppm: ≥ 80%
  Control Efficacy CPH: 100%
[5]; sprayed at 250 ppm
  mortality at 250 ppm: ≥ 80%
  Control Efficacy CPH: 100%
[5]; sprayed at 2 ppm
  Control Efficacy CPH: 89%
[5]; sprayed at 10 ppm
  Control Efficacy CPH: 95%

## FC(c1ccc(OC(F)(F)F)cc1)c1ccncc1-n1nccn1 (stereo not drawn) [Compound 9]
[7]; sprayed at 250 ppm
  mortality at 250 ppm: ≥ 80%
[4]; sprayed at 50 ppm
  mortality at 50 ppm: ≥ 80%
[4]; sprayed at 250 ppm
  mortality at 250 ppm: ≥ 80%
[5]; sprayed at 50 ppm
  mortality at 50 ppm: ≥ 80%
[5]; sprayed at 250 ppm
  mortality at 250 ppm: ≥ 80%

## FC(c1ccc(OC(F)(F)F)cc1)c1ccncc1-n1cccn1 (stereo not drawn) [Compound 11]
[3]; sprayed at 250 ppm
  mortality at 250 ppm: ≥ 80%
[7]; sprayed at 250 ppm
  mortality at 250 ppm: ≥ 80%
[4]; sprayed at 50 ppm
  mortality at 50 ppm: ≥ 80%
[4]; sprayed at 250 ppm
  mortality at 250 ppm: ≥ 80%
[5]; sprayed at 50 ppm
  mortality at 50 ppm: ≥ 80%
[5]; sprayed at 250 ppm
  mortality at 250 ppm: ≥ 80%

## FC(c1ccc(OC(F)(F)F)cc1)c1c(Cl)cncc1-n1nccn1 (stereo not drawn) [Compound 14]
[3]; sprayed at 50 ppm
  mortality at 50 ppm: ≥ 80%
[3]; sprayed at 250 ppm
  mortality at 250 ppm: ≥ 80%
[7]; sprayed at 250 ppm
  mortality at 250 ppm: ≥ 80%
[4]; sprayed at 50 ppm
  mortality at 50 ppm: ≥ 80%
[4]; sprayed at 250 ppm
  mortality at 250 ppm: ≥ 80%
[5]; sprayed at 50 ppm
  mortality at 50 ppm: ≥ 80%
[5]; sprayed at 250 ppm
  mortality at 250 ppm: ≥ 80%
[6]
  mortality at 50 ppm: ≥ 70%
  mortality at 250 ppm: ≥ 70%

## Fc1cncc(-n2cccn2)c1C(F)c1ccc(C(F)(F)F)cc1 (stereo not drawn) [Compound 21]
[3]; sprayed at 50 ppm
  mortality at 50 ppm: ≥ 80%
[3]; sprayed at 250 ppm
  mortality at 250 ppm: ≥ 80%
[7]; sprayed at 250 ppm
  mortality at 250 ppm: ≥ 80%
[4]; sprayed at 50 ppm
  mortality at 50 ppm: ≥ 80%
[4]; sprayed at 250 ppm
  mortality at 250 ppm: ≥ 80%
[5]; sprayed at 50 ppm
  mortality at 50 ppm: ≥ 80%
[5]; sprayed at 250 ppm
  mortality at 250 ppm: ≥ 80%
[1]
  control efficacy (40% or less feeding damage and/or 100% mortality): very good to excellent levels of control efficacy
